Data reported in ChEMBL document CHEMBL1150938, “Recent natural products based drug development: a pharmaceutical industry perspective” (J Nat Prod, 1998).

Legend:
Homo sapiens [1] = assay: Reduction in serum LDL-cholesterol level in normolipidemic human at 300 mg administered twice daily for 2 weeks; assay type: functional; set-up: scale not given: the % may be the effect or the level left
Homo sapiens [2] = assay: Inhibition of fractional cholesterol absorption in normolipidemic human at 300 mg administered twice daily for 2 weeks; assay type: functional; set-up: scale not given: the % may be the effect or the level left

C[C@@H]1CC[C@@]2(OC1)O[C@H]1C[C@H]3[C@@H]4CC[C@H]5C[C@@H](O[C@@H]6O[C@H](CO)[C@@H](O[C@@H]7O[C@H](CO)[C@@H](O)[C@H](O)[C@H]7O)[C@H](O)[C@H]6O)CC[C@]5(C)[C@H]4C(=O)C[C@]3(C)[C@H]1[C@@H]2C [PAMAQUESIDE]
Activity (Homo sapiens [1]): 10% | Activity (Homo sapiens [2]): 35%
